# Laboratory results from patent US9758485B2, “Compounds for controlling arthropods” (priority 2013, dated 2017).
# Key:
# Rhipicephalus sanguineus = Rhipicephalus sanguineus - in vitro contact tests with adult brown dog ticks; assay type: in vivo; conditions: application rate 5 μg/cm^2, after 48 h (dead or moribund)
# Protocol: Rhipicephalus sanguineus—In Vitro Contact Tests with Adult Brown Dog Ticks
# (§1) For the coating of the test tubes, 9 mg of active ingredient are first dissolved in 1 ml of acetone p.a. and then diluted to the desired concentration with acetone p.a. 250 μl of the solution are distributed homogeneously on the inner walls and base of a 25 ml test tube by turning and rocking on an orbital shaker (rocking rotation at 30 rpm for 2 h). With 900 ppm active ingredient solution and internal surface 44.7 cm^2, given homogeneous distribution, an area-based dose of 5 μg/cm^2 is achieved.
# After the solvent has evaporated off, the tubes are populated with 5-10 adult dog ticks (Rhipicephalus sanguineus), sealed with a perforated plastic lid and incubated in a horizontal position in the dark at room temperature and ambient humidity. After 48 h, efficacy is determined. To this end, the ticks are knocked to the floor of the tube and incubated on a hotplate at 45-50° C. for not more than 5 min. Ticks which remain motionless on the floor or move in such an uncoordinated manner that they are unable to deliberately avoid the heat by climbing upwards are considered to be dead or moribund.
# An efficacy of 100% means that all the ticks were dead or moribund. 0% efficacy means that none of the ticks had been harmed.
# Ctenocephalides felis [1] = experiment: Ctenocephalides felis - in vitro contact tests with adult cat fleas; assay type: in vivo; conditions: application rate 5 μg/cm^2 (=500 g/ha), after 48 h (dead or moribund)
# Protocol: Ctenocephalides felis—In Vitro Contact Tests with Adult Cat Fleas
# as §1, with “surface area” for “surface”
# After the solvent has evaporated off, the tubes are populated with 5-10 adult cat fleas (Ctenocephalides felis), sealed with a perforated plastic lid and incubated in a horizontal position at room temperature and ambient humidity. After 48 h, efficacy is determined. To this end, the test tubes are stood upright and the fleas are knocked to the base of the tube. Fleas which remain motionless at the base or move in an uncoordinated manner are considered to be dead or moribund.
# 100% efficacy means that all the fleas were dead or moribund. 0% efficacy means that no fleas were harmed.
# [2] = logP determination by HPLC on a reversed-phase column (C18), EEC Directive 79/831 Annex V.A8; assay type: physicochemical; conditions: for logP^a): HPLC-MS method a), Table I-T3; for logP: HPLC, reversed-phase C18, acetonitrile/water with formic acid, 55° C.
# Lucilia cuprina = Lucilia cuprina test; assay type: in vivo; conditions: application rate 100 ppm; L1 larvae in minced horsemeat; kill after 2 days
# In short: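 About 20 L1 larvae placed on minced horsemeat treated with compound, formulated in DMSO and diluted with water to test concentration. Kill in % scored after 2 days (100% = all larvae dead, 0% = none).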
# Boophilus microplus = Boophilus microplus - injection test; assay type: in vivo; conditions: application rate 20 μg/animal; injected into engorged adult female ticks; laying of fertile eggs, after 7 days
# In short: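 Steps: dilute compound in DMSO to the desired concentration; inject 1 μl abdominally into 5 engorged adult females; keep in climate-controlled dishes; at 7 days score fertile egg laying, incubating doubtful eggs until hatch at about 42 days.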
# Musca domestica = Musca domestica test; assay type: in vivo; conditions: application rate 100 ppm; adult houseflies; kill after 2 days
# In short: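 Feeding exposure: adult Musca domestica, 10 per vessel, given a sponge with sugar solution and test formulation at the desired concentration; % mortality determined on day 2.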
# Ctenocephalides felis [3] = experiment: Ctenocephalides felis - oral test; assay type: in vivo; conditions: application rate 100 ppm in citrated cattle blood; adult fleas; kill after 2 days
# In short: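 Oral exposure of unfed adult fleas, roughly 20 per chamber, to compound-spiked citrated cattle blood taken up across a parafilm membrane. Read-out is percent kill at 2 days, where 100% means every flea dead.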
# Amblyomma hebraeum = Amblyomma hebraeum test (tick nymphs, immersion); assay type: in vivo; conditions: application rate 100 ppm; tick nymphs immersed for one minute; kill after 42 days
# Protocol: (§2) Solvent: dimethyl sulphoxide
# To produce an appropriate active ingredient formulation, 10 mg of active ingredient are mixed with 0.5 ml of dimethyl sulphoxide, and the concentrate is diluted with water to the desired concentration.
# Tick nymphs (Amblyomma hebraeum) are placed into perforated plastic beakers and immersed in the desired concentration for one minute. The ticks are transferred on filter paper into a Petri dish and stored in a climate-controlled cabinet.
# After 42 days, the kill in % is determined. 100% means that all of the ticks have been killed; 0% means that none of the ticks have been killed.
# [4] = system: Boophilus microplus Parkhurst strain, SP-resistant; experiment: Boophilus microplus - dip test; assay type: in vivo; conditions: application rate 100 ppm; dip of engorged adult female ticks; laying of fertile eggs, after 7 days
# Protocol: Boophilus microplus—Dip Test
# Test animals: cattle ticks (Boophilus microplus) Parkhurst strain, SP-resistant
# as §2
# 10 mg of active ingredient are dissolved in 0.5 ml of dimethyl sulphoxide. For the purpose of producing a suitable formulation, the active ingredient solution is diluted with water to the concentration desired in each case.
# This active ingredient formulation is pipetted into tubes. 8-10 adult engorged female cattle ticks (Boophilus microplus) are transferred into a further tube with holes. The tube is immersed into the active ingredient formulation, and all the ticks are completely wetted. After the liquid has run out, the ticks are transferred on filter discs into plastic dishes and stored in a climate-controlled room.
# Efficacy is assessed after 7 days by laying of fertile eggs. Eggs which are not visibly fertile are stored in a climate-controlled cabinet until the larvae hatch after about 42 days. An efficacy of 100% means that none of the ticks has laid any fertile eggs; 0% means that all the eggs are fertile.
# [5] = HPLC-MS, reversed-phase column (C18)
# [6] = HPLC on reversed-phase column (C18)
logP [2],SMILES,efficacy (Rhipicephalus sanguineus),efficacy (Ctenocephalides felis [1]),logP^a) [2],efficacy (Lucilia cuprina),efficacy (Boophilus microplus),efficacy (Musca domestica),efficacy (Ctenocephalides felis [3]),efficacy (Amblyomma hebraeum),efficacy [4],"log P [2, 5]","log P [2, 6]"
,CCc1cc(C(F)(C(F)(F)F)C(F)(F)F)cc(C)c1-n1cc(-c2ccc(Cl)c(C(=O)NC3(C#N)CC3)c2)cn1 [I-T3-46],100%,100%,4.6,100%,100%,100%,100%,,,,
,N#CC1(NC(=O)c2cc(-c3cnn(-c4c(Cl)cc(C(F)(C(F)(F)F)C(F)(F)F)cc4C(F)(F)F)c3)ccc2Cl)CC1 [I-T3-57],,100%,4.3,100%,100%,100%,100%,100%,100%,,
,CCc1cc(C(F)(F)C(F)(F)F)cc(C)c1-n1cc(-c2ccc(Cl)c(C(=O)NC3(C#N)CC3)c2)cn1 [I-T3-80],80%,100%,4.2,100%,100%,100%,100%,,80%,,
,Cc1cc(C(F)(C(F)(F)F)C(F)(F)F)cc(Br)c1-n1cc(-c2ccc(Cl)c(C(=O)NC3CC3)c2)cn1 [I-T3-86],,100%,4.5,100%,100%,100%,100%,100%,100%,,
,O=C(NC1CC1)c1cc(-c2cnn(-c3c(Cl)cc(OC(F)(F)F)cc3Cl)c2)ccc1Cl [I-T3-88],80%,100%,3.6,100%,100%,80%,100%,,,,
,N#CC1(NC(=O)c2cc(-c3cnn(-c4c(Cl)cc(C(F)(F)F)cc4Cl)c3)cnc2Cl)CC1 [I-T3-95],,100%,,,100%,,100%,100%,100%,3.1,
,CN(C(=O)c1cc(-c2cnn(-c3c(Cl)cc(C(F)(C(F)(F)F)C(F)(F)F)cc3Cl)c2)cnc1Cl)C1CC1 [I-T3-100],,100%,,100%,100%,100%,100%,100%,100%,4.4,
,Cc1cc(C(F)(C(F)(F)F)C(F)(F)F)cc(C)c1-n1cc(-c2cnc(Cl)c(C(=O)N(C)C3CC3)c2)cn1 [I-T3-101],,100%,,100%,100%,100%,100%,95%,100%,4.4,
,COc1ncc(-c2cnn(-c3c(C)cc(C(F)(C(F)(F)F)C(F)(F)F)cc3C)c2)cc1C(=O)NC1CC1 [I-T3-143],80%,100%,,100%,100%,100%,100%,,,4.6,
,O=C(NC1CC1)c1cc(-c2cnn(-c3c(Br)cc(C(F)(C(F)(F)F)C(F)(F)F)cc3C(F)(F)F)c2)cnc1Cl [I-T3-160],100%,100%,,100%,100%,100%,100%,,100%,4.0,
,N#CC1(NC(=O)c2cc(-c3cnn(-c4c(Br)cc(C(F)(C(F)(F)F)C(F)(F)F)cc4C(F)(F)F)c3)cnc2Cl)CC1 [I-T3-165],100%,100%,,100%,100%,100%,100%,,100%,3.9,
,Cc1cc(C(F)(C(F)(F)F)C(F)(F)F)cc(I)c1-n1cc(-c2ccc(Cl)c(C(=O)NC3CC3)c2)cn1 [I-T3-175],100%,100%,,100%,100%,100%,100%,,100%,4.5,
,Cc1cc(C(F)(C(F)(F)F)C(F)(F)F)cc(I)c1-n1cc(-c2ccc(Cl)c(C(=O)NC3(C#N)CC3)c2)cn1 [I-T3-176],100%,100%,,100%,100%,100%,100%,,100%,4.4,
,O=C(NC1CC1)c1cc(-c2cnn(-c3c(Cl)cc(C(F)(C(F)(F)F)C(F)(F)F)cc3OC(F)(F)F)c2)cnc1Cl [I-T3-189],100%,100%,,100%,,100%,100%,,,,4.3
,O=C(NC1CC1)c1cc(-c2cnn(-c3c(Cl)cc(C(F)(C(F)(F)F)C(F)(F)F)cc3OC(F)F)c2)cnc1Cl [I-T3-196],100%,100%,,,,,,,,,3.9
4.4,Cc1cc(C(F)(C(F)(F)F)C(F)(F)F)cc(C(F)(F)F)c1-c1cc(-c2cnc(Cl)c(C(=O)NC3(C#N)CC3)c2)on1 [I-T22-4],100%,,,,100%,,100%,,100%,,
4.9,Cc1cc(C(F)(C(F)(F)F)C(F)(F)F)cc(C(F)(F)F)c1-c1cc(-c2ccc(Cl)c(C(=O)NC3CC3)c2)on1 [I-T22-5],100%,100%,,100%,100%,100%,100%,,100%,,
4.5,Cc1cc(C(F)(C(F)(F)F)C(F)(F)F)cc(C(F)(F)F)c1-c1cc(-c2cnc(Cl)c(C(=O)NC3CC3)c2)on1 [I-T22-6],100%,,,100%,100%,90%,95%,,100%,,

SMILES,logP [2],efficacy (Rhipicephalus sanguineus),efficacy (Ctenocephalides felis [1]),logP^a) [2],efficacy (Lucilia cuprina),efficacy (Boophilus microplus),efficacy (Musca domestica),efficacy (Ctenocephalides felis [3]),efficacy (Amblyomma hebraeum),efficacy [4],"log P [2, 5]","log P [2, 6]"
Cc1cc(C(F)(C(F)(F)F)C(F)(F)F)cc(C)c1-c1cnn(-c2ccc(Cl)c(C(=O)NC3(C#N)CC3)c2)c1 [I-T4-2],4.6,100%,100%,,100%,100%,100%,100%,,,,
